Test results as given in patent publication EP0295604A1, “(E)-2-(p-Fluorophenethyl)-3-fluoroallylamine” (MERRELL DOW PHARMACEUTICALS INC., priority 1987, dated 1988).

Key:
[1] = molecular target: T1, rat brain mitochondrial MAO-A (Rattus norvegicus, UniProt P21396); assay: In vitro inhibition of rat brain mitochondrial MAO-A; format: biochemical
T1 construct: from tissue; host or cells: rat brain mitochondria
T1 sequence (P21396 1-526): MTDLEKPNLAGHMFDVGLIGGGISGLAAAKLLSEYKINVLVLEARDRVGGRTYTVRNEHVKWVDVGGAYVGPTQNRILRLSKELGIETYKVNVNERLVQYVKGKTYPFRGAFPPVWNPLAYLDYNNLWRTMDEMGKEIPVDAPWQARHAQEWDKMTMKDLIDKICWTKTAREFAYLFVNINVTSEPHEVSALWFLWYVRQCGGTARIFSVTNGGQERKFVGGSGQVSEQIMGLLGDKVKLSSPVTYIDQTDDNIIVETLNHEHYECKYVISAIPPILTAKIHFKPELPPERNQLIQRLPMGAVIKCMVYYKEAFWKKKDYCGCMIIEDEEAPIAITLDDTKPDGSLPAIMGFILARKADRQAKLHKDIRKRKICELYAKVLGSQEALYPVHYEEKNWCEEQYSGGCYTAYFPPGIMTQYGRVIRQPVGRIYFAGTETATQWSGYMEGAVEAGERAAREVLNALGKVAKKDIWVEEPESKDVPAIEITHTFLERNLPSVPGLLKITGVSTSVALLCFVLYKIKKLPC
Excerpt: In vivo, the compound is active orally, is potent and with a selectivity ratio of 44 remains selective for MAO-B.

[2] = molecular target: T2, rat brain mitochondrial MAO-B (Rattus norvegicus, UniProt P19643); assay: In vitro inhibition of rat brain mitochondrial MAO-B; format: biochemical; conditions: MAO-A vs MAO-B IC50
T2 sequence (P19643 1-520): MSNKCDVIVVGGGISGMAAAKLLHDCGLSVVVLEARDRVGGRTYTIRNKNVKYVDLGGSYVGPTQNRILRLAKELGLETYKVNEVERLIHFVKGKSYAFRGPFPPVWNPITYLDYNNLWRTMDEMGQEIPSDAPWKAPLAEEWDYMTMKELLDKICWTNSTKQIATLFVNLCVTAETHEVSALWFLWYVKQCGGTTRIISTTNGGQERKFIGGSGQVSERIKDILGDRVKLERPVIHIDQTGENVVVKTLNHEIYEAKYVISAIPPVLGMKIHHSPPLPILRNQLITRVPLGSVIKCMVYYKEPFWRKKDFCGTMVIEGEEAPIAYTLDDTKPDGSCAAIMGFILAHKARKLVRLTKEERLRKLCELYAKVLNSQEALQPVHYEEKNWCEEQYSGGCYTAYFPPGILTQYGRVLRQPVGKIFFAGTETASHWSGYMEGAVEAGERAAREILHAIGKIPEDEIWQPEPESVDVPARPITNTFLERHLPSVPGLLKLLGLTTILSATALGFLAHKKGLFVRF

[3] = tested on: MAO-A; assay: Chronic (14 day) oral administration, rat tissue MAO-A activity; format: in vivo
Excerpt: Following repeated daily administration for 14 days, (E)-2-p-fluorophenethyl)-3-fluoroallylamine remained selective for the MAO-B enzyme. From the irreversible inhibition, mode of action and the long half-life of the enzyme, a lower daily dose is needed to inhibit the enzyme.

[4] = tested on: MAO-B; assay: Chronic (14 day) oral administration, rat tissue MAO-B activity; format: in vivo
[5] = tested on: Striatal dopamine; assay: Prevention of MPTP neurotoxicity (striatal dopamine); format: in vivo; conditions: mice
Excerpt: MPTP given parenterally to mice depletes striatal dopamine. This effect can be prevented by MAO-B, but not by MAO-A inhibitor.

[6] = tested on: tachycardia response to tyramine; assay: Potentiation of the cardiovascular effects of tyramine (tachycardia response); format: in vivo; conditions: for Tyramine potentiation ratio i.d.: intraduodenal tyramine 0.3-50 mg/kg; for Tyramine potentiation ratio i.v.: intravenous tyramine 1.25-80 µg/kg
Excerpt: Non-selective and MAO-A selective inhibitors are known to produce dangerous cardiovascular interactions with tyramine containing foods; the so-called "cheese reaction". L-Deprenyl is devoid of this effect.

| SMILES | IC50 [1] [nM] | selectivity ratio in favor of MAO-B inhibition [2] | ED50 MAO-A ([3]; Brain) [mg/kg p.o.] | ED50 MAO-A ([3]; Duodenum) | ED50 MAO-A ([3]; Heart) [mg/kg p.o.] | ED50 MAO-A ([3]; Liver) [mg/kg p.o.] | ED50 MAO-B ([4]; Brain) [mg/kg p.o.] | ED50 MAO-B ([4]; Duodenum) [mg/kg p.o.] | ED50 MAO-B ([4]; Heart) [mg/kg p.o.] | ED50 MAO-B ([4]; Liver) [mg/kg p.o.] | Striatal dopamine ([5]; MPTP plus compound) | Striatal dopamine ([5]; compound alone, 1.25 mg/kg i.p.) | Tyramine potentiation ratio i.d. ([6]; 1.8 mg/kg p.o.) | Tyramine potentiation ratio i.v. ([6]; 1.8 mg/kg p.o.) | Tyramine potentiation ratio i.d. ([6]; 9 mg/kg p.o.) | Tyramine potentiation ratio i.v. ([6]; 9 mg/kg p.o.) | interactions with tyramine ([6]; given acutely at 10 and 50 times the ED50 dose for inhibition of MAO-B) | Striatal dopamine ([5]; MPTP alone, 20 mg/kg i.p.) |
| --- | --- | --- | --- | --- | --- | --- | --- | --- | --- | --- | --- | --- | --- | --- | --- | --- | --- | --- |
| NC/C(=C/F)CCc1ccc(F)cc1 [(E)-2-(p-fluorophenethyl)-3-fluoroallylamine] | 680 | 190 | > 5 | >>5 mg/kg p.o. | 5 | > 5 | 0.025 | 0.25 | 0.5 | 0.01 | 16.0 ± 0.4 ug/g ± SEM | 16.6 ± 0.9 ug/g ± SEM | 1.4 | 0.8 | 1.3 | 1.8 | devoid of interactions with tyramine | – |
| CN1CC=C(c2ccccc2)CC1 [MPTP, N-methyl-4-phenyl-1,2,3,6-tetrahydropyridine, reference compound] | – | – | – | – | – | – | – | – | – | – | – | – | – | – | – | – | – | 4.3 ± 0.4 ug/g ± SEM |
